Laboratory results published in ChEMBL document CHEMBL6092199, “Naphthalen-1-ylethanamine-containing small molecule inhibitors of the papain-like protease of SARS-CoV-2” (Eur J Med Chem, 2024).
Activity calls are given as the source filed them. The rule behind the calls is not given here.

Tests used:
SARS-CoV-2 [1] = experiment: Antiviral activity against SARS-CoV-2 JPN/TY/WK-521 infected in Vero E6 cells assessed as reduction in viral RNA level incubated for 3 days by RT-qPCR analysis; format: functional, organism-based; conditions: Severe acute respiratory syndrome coronavirus 2, JPN/TY/WK-521, Vero C1008, 72 h
[2] = Cytotoxicity against african green monkey Vero E6 cells incubated for 3 days by CCK8 assay; format: toxicity, cell-based, Vero C1008; conditions: chlorocebus sabaeus, time 3 day
[3] = Inhibition of SARS-CoV-1 PL protease using (Z)-Arg-Leu-Arg-Gly-Gly-4-methyl-coumaryl-7-amide as substrate measured every 150 sec for 1 hr by multimode reader assay; design: species or system Severe acute respiratory syndrome-related coronavirus
[4] = Inhibition of SARS-CoV-1 PL protease using (Z)-Arg-Leu-Arg-Gly-Gly-4-methyl-coumaryl-7-amide as substrate and varying concentration of […] by Lineweaver-burk plot analysis; design: species or system Severe acute respiratory syndrome-related coronavirus
[5] = Inhibition of SARS-CoV-1 PL protease using varying concentration of (Z)-Arg-Leu-Arg-Gly-Gly-4-methyl-coumaryl-7-amide as substrate by Dixon plot analysis; design: species or system Severe acute respiratory syndrome-related coronavirus
[6] = molecular target: T1, Replicase polyprotein 1ab (Severe acute respiratory syndrome coronavirus 2, UniProt P0DTD1); experiment: Inhibition of SARS-CoV-2 PL protease using (Z)-Arg-Leu-Arg-Gly-Gly-4-methyl-coumaryl-7-amide as substrate and varying concentration of […] by Lineweaver-burk plot analysis
[7] = molecular target: T1, Replicase polyprotein 1ab; experiment: Inhibition of SARS-CoV-2 PL protease using varying concentration of (Z)-Arg-Leu-Arg-Gly-Gly-4-methyl-coumaryl-7-amide as substrate by Dixon plot analysis
SARS-CoV-2 [8] = experiment: Antiviral activity against SARS-CoV-2 JPN/TY/WK-521 infected in Vero E6 cells assessed as reduction in cytopathic effect at 1 to 100 uM pretreated with virus for 1 hr followed by viral washout and compound exposure for 3 days by immunocytochemistry analysis; format: functional, organism-based; conditions: Severe acute respiratory syndrome coronavirus 2, dose 1-100 µM, time 3.0 day
[9] = molecular target: T1, Replicase polyprotein 1ab; experiment: Inhibition of SARS-CoV-2 PL protease using (Z)-Arg-Leu-Arg-Gly-Gly-4-methyl-coumaryl-7-amide as substrate measured every 150 sec for 1 hr by multimode reader assay

Row | SMILES | EC50 (SARS-CoV-2 [1]) [µM] | CC50 at 72 h [2] [µM] | other results
1 | Cc1ccc(CNC(=O)c2ccc(F)c(F)c2)cc1C(=O)N[C@H](C)c1cccc2cc3ccccc3cc12 | > 100 | > 100 | –
2 | Cc1ccc(CNC(=O)c2cccc(C(F)(F)F)c2)cc1C(=O)N[C@H](C)c1cccc2ccccc12 | 15.7 | > 100 | –
3 | Cc1ccc(N)cc1C(=O)N[C@H](C)c1cccc2ccccc12 | 24.7 | > 100 | IC50 [3]: 50 nM; Ki [4]: 120 nM; Ki [5]: 290 nM
4 | Cc1ccc(CNC(=O)c2ccccc2[N+](=O)[O-])cc1C(=O)N[C@H](C)c1cccc2ccccc12 | 18.3 | 55.6 | –
5 | Cc1ccc(CNC(=O)c2cccc(C(F)(F)F)c2F)cc1C(=O)N[C@H](C)c1cccc2ccccc12 | 29.1 | > 100 | –
6 | Cc1ccc(CNC(=O)c2ccccc2)cc1C(=O)N[C@H](C)c1cccc2ccccc12 | 35.4 | > 100 | –
7 | Cc1ccccc1C(=O)NCc1ccc(C)c(C(=O)N[C@H](C)c2cccc3ccccc23)c1 | 15.1 | > 100 | –
8 | Cc1ccc(CNC(=O)c2ccc(F)c(F)c2)cc1C(=O)N[C@H](C)c1cccc2ccccc12 | 3.8 | > 100 | IC50 [3]: 300 nM; Ki [6]: 5.6 µM; Ki [4]: 160 nM; Ki [7]: 5.3 µM; Ki [5]: 280 nM; Activity (SARS-CoV-2 [8]): Active
9 | Cc1ccc(CNC(=O)c2c(F)cc(F)cc2F)cc1C(=O)N[C@H](C)c1cccc2ccccc12 | > 100 | > 100 | –
10 | Cc1ccc(CNC(=O)c2ccc(C(F)(F)F)cc2)cc1C(=O)N[C@H](C)c1cccc2ccccc12 | 18.7 | > 100 | –
11 | Cc1ccc(CNC(=O)c2ccc(F)cc2F)cc1C(=O)N[C@H](C)c1cccc2ccccc12 | > 100 | > 100 | –
12 | Cc1ccc(CNC(=O)c2ccccc2C(F)(F)F)cc1C(=O)N[C@H](C)c1cccc2ccccc12 | 27.4 | > 100 | –
13 | CCOC(=O)C(=O)NCc1ccc(C)c(C(=O)N[C@H](C)c2cccc3ccccc23)c1 | > 100 | > 100 | –
14 | Cc1ccc(CNC(=O)C(=O)O)cc1C(=O)N[C@H](C)c1cccc2cc3ccccc3cc12 | > 100 | > 100 | –
15 | Cc1ccc(CNC(=O)c2ccc(F)cc2)cc1C(=O)N[C@H](C)c1cccc2ccccc12 | 25.7 | > 100 | –
16 | Cc1ccc(CNC(=O)C(=O)O)cc1C(=O)N[C@H](C)c1cccc2ccccc12 | 2.7 | > 100 | IC50 [9]: 5.9 µM; IC50 [3]: 460 nM; Ki [6]: 4.4 µM; Ki [4]: 120 nM; Ki [7]: 4.6 µM; Ki [5]: 180 nM; Activity (SARS-CoV-2 [8]): Active
17 | Cc1ccc(CNC(=O)c2cccc(C(F)(F)F)c2C)cc1C(=O)N[C@H](C)c1cccc2ccccc12 | > 100 | > 100 | –
18 | Cc1ccc(CNC(=O)c2ccc([N+](=O)[O-])cc2)cc1C(=O)N[C@H](C)c1cccc2ccccc12 | 40.3 | > 100 | –
19 | Cc1ccc(CNC(=O)c2cccc(F)c2F)cc1C(=O)N[C@H](C)c1cccc2ccccc12 | 52.3 | > 100 | –
20 | Cc1ccc(CNC(=O)C(C(F)(F)F)C(F)(F)F)cc1C(=O)N[C@H](C)c1cccc2ccccc12 | > 100 | > 100 | –

Row | SMILES | EC50 (SARS-CoV-2 [1]) [µM] | CC50 at 72 h [2] [µM] | other results
21 | Cc1ccc(CNC(=O)c2cc(F)c(F)cc2F)cc1C(=O)N[C@H](C)c1cccc2ccccc12 | > 100 | > 100 | –
22 | Cc1ccc(CNC(=O)c2ccc(F)cc2C(F)(F)F)cc1C(=O)N[C@H](C)c1cccc2ccccc12 | > 100 | > 100 | –
23 | Cc1ccc(CNC(=O)c2ccccc2F)cc1C(=O)N[C@H](C)c1cccc2ccccc12 | 13.2 | > 100 | –
24 | Cc1ccc(CN)cc1C(=O)N[C@H](C)c1cccc2cc3ccccc3cc12 | 27.3 | 40.5 | –
25 | CNCc1ccc(C)c(C(=O)N[C@H](C)c2cccc3ccccc23)c1 | 25.2 | > 100 | –
26 | CC(=O)NCc1ccc(C)c(C(=O)N[C@H](C)c2cccc3ccccc23)c1 | > 100 | > 100 | –
27 | Cc1ccc(CNC(=O)c2ccc(C(F)(F)F)cc2F)cc1C(=O)N[C@H](C)c1cccc2ccccc12 | > 100 | > 100 | –
28 | Cc1ccc(CNC(=O)C(N)=O)cc1C(=O)N[C@H](C)c1cccc2ccccc12 | > 100 | > 100 | –
29 | Cc1ccc(CNC(=O)CC(F)(F)F)cc1C(=O)N[C@H](C)c1cccc2ccccc12 | 40.7 | > 100 | –
30 | Cc1cccc(C(=O)NCc2ccc(C)c(C(=O)N[C@H](C)c3cccc4ccccc34)c2)c1 | 44 | > 100 | –
31 | Cc1ccc(CNC(=O)c2c(F)c(F)cc(F)c2F)cc1C(=O)N[C@H](C)c1cccc2ccccc12 | 44.8 | > 100 | –
32 | Cc1ccc(CN)cc1C(=O)N[C@H](C)c1cccc2ccccc12 | 15.5 | > 100 | –
33 | Cc1ccc(CNC(=O)c2cc(C(F)(F)F)cc(C(F)(F)F)c2)cc1C(=O)N[C@H](C)c1cccc2ccccc12 | 72.8 | > 100 | –
34 | Cc1ccc(CNC(=O)c2ccc(C(C)(C)C)cc2)cc1C(=O)N[C@H](C)c1cccc2ccccc12 | 7.3 | 58.2 | IC50 [9]: 3.1 µM; IC50 [3]: 470 nM; Ki [6]: 4.1 µM; Ki [4]: 320 nM; Ki [7]: 4.6 µM; Ki [5]: 540 nM
35 | Cc1ccc(CNC(=O)c2cccc(F)c2)cc1C(=O)N[C@H](C)c1cccc2ccccc12 | 57.4 | > 100 | –
36 | Cc1ccc(CNC(=O)OC(C)(C)C)cc1C(=O)N[C@H](C)c1cccc2cc3ccccc3cc12 | > 100 | > 100 | –
37 | Cc1ccc(CNC(=O)c2ccc([N+](=O)[O-])c(F)c2)cc1C(=O)N[C@H](C)c1cccc2ccccc12 | 76.9 | > 100 | –
38 | Cc1ccc(CNC(=O)c2ccc(C(F)(F)F)c(F)c2)cc1C(=O)N[C@H](C)c1cccc2ccccc12 | > 100 | > 100 | –
39 | Cc1ccc(CNC(=O)C(F)(F)F)cc1C(=O)N[C@H](C)c1cccc2ccccc12 | 30.3 | > 100 | –
40 | Cc1ccc(C(=O)NCc2ccc(C)c(C(=O)N[C@H](C)c3cccc4ccccc34)c2)cc1 | > 100 | > 100 | –
